Test in all cases: relative viability (nuclei count vs DMSO), 5 days (fraction); higher = more cells survive
Compound in test [1]: C[C@]12O[C@H](C[C@]1(O)CO)n1c3ccccc3c3c4c(c5c6ccccc6n2c5c31)CNC4=O [Lestaurtinib] + C[C@@H](Oc1cc(-c2cnn(C3CCNCC3)c2)cnc1N)c1c(Cl)ccc(F)c1Cl [Crizotinib] (partner 1 µM)
The procedure, abridged: (§1)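 Relative viability equals treated-well nuclei counts divided by vehicle-well nuclei counts. Counts came from 4× images of lung cancer cell lines grown in 1536-well plates for 5 days after pin-tool dosing on the day after seeding. Dosing used one drug alone or a fixed anchor-drug dose plus five library-drug doses (not always all listed) in √10 steps, and values are medians of duplicate plates.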

Compound in test [2]: C1=CC(=CC=C1C2=CC(=C(S2)NC(=O)N)C(=O)N)F [TPCA-1] + O=C(c1cc(Cc2n[nH]c(=O)c3ccccc23)ccc1F)N1CCN(C(=O)C2CC2)CC1 [Olaparib] (partner 8 µM)
The procedure, abridged:
as §1

Compound in test [3]: C[C@]12O[C@H](C[C@]1(O)CO)n1c3ccccc3c3c4c(c5c6ccccc6n2c5c31)CNC4=O [Lestaurtinib] + C[C@]1(O)C[C@@H](c2nc(-c3ccc4ccc(-c5ccccc5)nc4c3)c3c(N)nccn32)C1 [Linsitinib] (partner 1 µM)
The procedure, abridged: as §1

Compound in test [4]: C1/C(=C\C2=CC=CS2)/C(=O)/C(=C/C3=CC=CS3)/C1 + Nc1ncn([C@H]2C[C@H](O)[C@@H](CO)O2)c(=O)n1 [Decitabine] (partner 2 µM)
The procedure, abridged:
as §1

The values that follow come from the supplement of paper PMC10307832.

NCI-H1703: the relative viability in test [1] (first compound 0.005 µM) came to 0.81; in test [1] (first compound 0.01581 µM), 0.524; in test [1] (first compound 0.05 µM), 0.263; in test [1] (first compound 0.1581 µM), 0.257; in test [1] (first compound 0.5 µM), 0.0934; in test [2] (first compound 0.04 µM) it was 0.443. Besides, the relative viability was determined as 0.39 in test [2] (first compound 0.1265 µM); 0.433 in test [2] (first compound 0.4 µM); 0.398 in test [2] (first compound 1.265 µM); 0.424 in test [2] (first compound 4 µM); 0.513 in test [3] (first compound 0.005 µM); 0.508 in test [3] (first compound 0.01581 µM). Further, the relative viability was found to be 0.562 in test [3] (first compound 0.05 µM), 0.164 in test [3] (first compound 0.1581 µM) and 0.149 in test [3] (first compound 0.5 µM).
Regarding NCI-H1793, the relative viability in test [4] (first compound 0.2 µM) turned out to be 0.526; in test [4] (first compound 0.6325 µM) it was 0.554; in test [4] (first compound 2 µM), 0.614; in test [4] (first compound 6.325 µM), 0.305; in test [4] (first compound 20 µM), 0.469; in test [2] (first compound 0.04 µM), 0.982. In addition, the relative viability amounted to 0.735 in test [2] (first compound 0.1265 µM); 1.1 in test [2] (first compound 0.4 µM); 0.821 in test [2] (first compound 1.265 µM); 0.546 in test [2] (first compound 4 µM); 0.897 in test [3] (first compound 0.005 µM); 0.816 in test [3] (first compound 0.01581 µM). The relative viability was determined as 0.467 in test [3] (first compound 0.05 µM), 0.876 in test [3] (first compound 0.1581 µM) and 0.566 in test [3] (first compound 0.5 µM).
For NCI-H2170, the relative viability worked out at 0.439 in test [4] (first compound 0.2 µM); 0.436 in test [4] (first compound 0.6325 µM); 0.466 in test [4] (first compound 2 µM); 0.466 in test [4] (first compound 6.325 µM); 0.479 in test [4] (first compound 20 µM); 1.05 in test [1] (first compound 0.005 µM). Moreover, the relative viability in test [1] (first compound 0.01581 µM) amounted to 1.06; in test [1] (first compound 0.05 µM), 0.68; in test [1] (first compound 0.1581 µM) it was 0.924; in test [1] (first compound 0.5 µM), 0.292; in test [2] (first compound 0.04 µM), 0.668; in test [2] (first compound 0.1265 µM) it was 0.568. The relative viability was found to be 0.65 in test [2] (first compound 0.4 µM), 0.508 in test [2] (first compound 1.265 µM) and 0.439 in test [2] (first compound 4 µM).
Turning to NCI-H2228, the relative viability in test [1] (first compound 0.005 µM) came out at 0.512; in test [1] (first compound 0.01581 µM), 0.442; in test [1] (first compound 0.05 µM) it was 0.415; in test [1] (first compound 0.1581 µM) it was 0.21; in test [1] (first compound 0.5 µM), 0.255; in test [2] (first compound 0.04 µM) it was 0.731. Also, the relative viability was found to be 0.624 in test [2] (first compound 0.1265 µM); 0.789 in test [2] (first compound 0.4 µM); 0.56 in test [2] (first compound 1.265 µM); 0.432 in test [2] (first compound 4 µM); 0.892 in test [3] (first compound 0.005 µM); 0.812 in test [3] (first compound 0.01581 µM). The relative viability amounted to 0.402 in test [3] (first compound 0.05 µM), 0.284 in test [3] (first compound 0.1581 µM) and 0.37 in test [3] (first compound 0.5 µM).
NCI-H2342: the relative viability in test [4] (first compound 0.2 µM) was determined as 0.819; in test [4] (first compound 0.6325 µM), 0.73; in test [4] (first compound 2 µM) it was 0.713; in test [4] (first compound 6.325 µM), 0.752; in test [4] (first compound 20 µM), 0.653; in test [2] (first compound 0.04 µM), 0.487. For the same cell line, the relative viability in test [2] (first compound 0.1265 µM) turned out to be 0.351; in test [2] (first compound 0.4 µM), 0.44; in test [2] (first compound 1.265 µM), 0.423; in test [2] (first compound 4 µM) it was 0.325.
Take SW 900: the relative viability is 0.404 in test [4] (first compound 0.2 µM); 0.434 in test [4] (first compound 0.6325 µM); 0.375 in test [4] (first compound 2 µM); 0.42 in test [4] (first compound 6.325 µM); 0.438 in test [4] (first compound 20 µM); 0.894 in test [2] (first compound 0.4 µM). For the same cell line, the relative viability in test [2] (first compound 1.265 µM) stood at 0.935; in test [2] (first compound 4 µM), 0.644.
